Where two headings read alike, the source gives them in different places.
Target: Nav1.6 (Homo sapiens, UniProt Q9UQD0)
Assay: Nav two-pulse protocol, IonWorks Quattro electrophysiology
Assay type: cell-based
Details: -120 mV to 0 mV, compound incubated 300 s
Experimental: Compound Plate Preparation
Supplied compounds were sent as Assay Ready Plates, with 2 μL per well of compound in DMSO at 300× the final assay concentrations as described above and in the project proposal. All assay plates are stored at in a −80° C. freezer.
On the day of the assay, 198 μL of external solution was added to the appropriate assay plate and mixed thoroughly. This provided a 1:100 dilution. A further 1:3 dilution occurred upon addition to the cells in the IonWorks, giving a 1:300 dilution in total.
On each assay plate, at least 8 wells were reserved for vehicle control (0.3% DMSO) and at least 8 wells for each positive control specific to the cell line tested. The positive controls were tested in an 8-point dose response with 3-fold dilutions to determine an IC50 value for each run. The positive control compounds are outlined below.
Ion Channel Positive Control & Concentrations
Nav1.6/1.2 Lidocaine: 8, 3-fold dilutions starting at 100 μM
Electrophysiological Recording Solutions
The solutions for recording currents were are follows:
Amphotericin B was used to obtain electrical access to the cell interior at a final concentration of 200 μg/ml in internal recording solution.
Experimental Protocols & Data Analysis
Nav currents were evoked by stepping from a holding potential of −120 mV to 0 mV for 2.5 s (pulse 1), followed by a 5 ms inter-pulse interval, and stepping from a holding potential of −120 mV to 0 mV for 20 ms (pulse 2). The voltage protocol was applied (Pre), compounds added, incubated for 300 seconds, and the voltage protocol was applied a final time (Post) on the IonWorks Quattro.
The parameters measured were the maximum inward current evoked on stepping to 0 mV from the 1st and 2nd pulse. All data were filtered for seal quality, seal drop, and current amplitude. The peak current amplitude (Peak) was calculated before (Pre) and after (Post) compound addition to the amount of block was assessed by dividing the Post-compound current amplitude by the Pre-compound current amplitude. These procedures were implemented for the 1st and 2nd pulse.

Chain of Nav1.6 (Q9UQD0 whole entry): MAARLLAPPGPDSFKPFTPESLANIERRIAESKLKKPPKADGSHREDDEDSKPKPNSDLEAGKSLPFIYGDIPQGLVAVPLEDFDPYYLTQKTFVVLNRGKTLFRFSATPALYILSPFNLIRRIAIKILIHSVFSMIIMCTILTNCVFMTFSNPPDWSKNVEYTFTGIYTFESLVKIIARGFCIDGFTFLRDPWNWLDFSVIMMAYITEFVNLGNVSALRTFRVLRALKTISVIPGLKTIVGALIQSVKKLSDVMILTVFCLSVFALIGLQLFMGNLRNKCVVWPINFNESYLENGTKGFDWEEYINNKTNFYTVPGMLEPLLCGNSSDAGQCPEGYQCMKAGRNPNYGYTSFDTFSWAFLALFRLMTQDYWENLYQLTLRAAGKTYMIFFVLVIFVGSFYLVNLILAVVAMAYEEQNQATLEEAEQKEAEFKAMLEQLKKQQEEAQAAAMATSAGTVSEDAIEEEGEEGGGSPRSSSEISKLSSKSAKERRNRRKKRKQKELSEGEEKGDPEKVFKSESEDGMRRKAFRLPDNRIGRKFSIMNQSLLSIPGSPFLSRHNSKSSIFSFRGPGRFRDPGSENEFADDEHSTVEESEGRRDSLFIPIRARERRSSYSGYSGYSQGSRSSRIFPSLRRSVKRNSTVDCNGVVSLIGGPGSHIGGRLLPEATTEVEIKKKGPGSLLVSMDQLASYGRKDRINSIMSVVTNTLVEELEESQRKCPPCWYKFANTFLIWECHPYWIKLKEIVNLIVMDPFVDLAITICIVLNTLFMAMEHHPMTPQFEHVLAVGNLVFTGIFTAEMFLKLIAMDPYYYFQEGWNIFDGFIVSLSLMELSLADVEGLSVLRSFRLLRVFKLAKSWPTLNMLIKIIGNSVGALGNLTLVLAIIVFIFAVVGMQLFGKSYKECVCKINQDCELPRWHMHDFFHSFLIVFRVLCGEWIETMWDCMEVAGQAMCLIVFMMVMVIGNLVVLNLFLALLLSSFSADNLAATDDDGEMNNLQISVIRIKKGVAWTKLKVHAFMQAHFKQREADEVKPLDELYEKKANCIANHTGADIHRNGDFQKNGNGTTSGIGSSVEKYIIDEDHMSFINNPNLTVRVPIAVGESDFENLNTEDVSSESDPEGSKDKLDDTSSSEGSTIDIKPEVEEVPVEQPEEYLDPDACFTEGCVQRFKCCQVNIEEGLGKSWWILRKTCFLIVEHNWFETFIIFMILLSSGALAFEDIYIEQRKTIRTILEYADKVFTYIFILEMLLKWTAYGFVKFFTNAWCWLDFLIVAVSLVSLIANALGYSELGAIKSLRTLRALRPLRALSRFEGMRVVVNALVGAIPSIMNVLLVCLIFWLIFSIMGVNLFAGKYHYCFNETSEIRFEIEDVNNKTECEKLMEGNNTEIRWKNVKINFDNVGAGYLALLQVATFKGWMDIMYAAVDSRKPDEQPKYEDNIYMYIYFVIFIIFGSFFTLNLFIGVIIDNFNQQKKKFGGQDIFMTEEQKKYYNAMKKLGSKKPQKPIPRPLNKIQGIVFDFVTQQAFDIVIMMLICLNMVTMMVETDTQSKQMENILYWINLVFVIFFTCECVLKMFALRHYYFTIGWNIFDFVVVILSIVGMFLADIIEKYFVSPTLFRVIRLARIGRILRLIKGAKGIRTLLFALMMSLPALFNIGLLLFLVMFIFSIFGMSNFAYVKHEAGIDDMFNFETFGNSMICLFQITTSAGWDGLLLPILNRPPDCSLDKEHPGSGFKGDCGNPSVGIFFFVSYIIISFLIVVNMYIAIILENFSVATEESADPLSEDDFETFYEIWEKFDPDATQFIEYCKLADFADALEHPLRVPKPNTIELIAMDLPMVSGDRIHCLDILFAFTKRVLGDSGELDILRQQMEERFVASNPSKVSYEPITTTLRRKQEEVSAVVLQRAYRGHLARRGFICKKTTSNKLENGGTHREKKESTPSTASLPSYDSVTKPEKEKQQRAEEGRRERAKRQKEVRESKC

Structure (SMILES) | IC50 (read-out: Nav1.6 Tonic) | IC50 (read-out: Nav1.6 inac)
O=C(NCc1ccc(Cl)cc1)C1CCN(Cc2cccc(Oc3ccccc3)c2)C1 (centres unmarked) [Compound 68, 1-(3-Phenoxy-benzyl)-pyrrolidine-3-carboxylic acid 4-chloro-benzylamide] | 10 to 20 µM | 1 to 5 µM
O=C(NCc1cccc(Cl)c1)C1CCN(Cc2cccc(Oc3ccccc3)c2)C1 (centres unmarked) [Compound 69, 1-(3-Phenoxy-benzyl)-pyrrolidine-3-carboxylic acid 3-chloro-benzylamide] | > 20 µM | < 1 µM
O=C(NCc1cccc(C(F)(F)F)c1)C1CCN(Cc2cccc(Oc3ccccc3)c2)C1 (centres unmarked) [Compound 70, 1-(3-Phenoxy-benzyl)-pyrrolidine-3-carboxylic acid 3-trifluoromethyl-benzylamide] | 10 to 20 µM | 1 to 5 µM
O=C(NCc1ccc(C(F)(F)F)cc1)C1CCN(Cc2cccc(Oc3ccccc3)c2)C1 (centres unmarked) [Compound 71, 1-(3-Phenoxy-benzyl)-pyrrolidine-3-carboxylic acid 4-trifluoromethyl-benzylamide] | 10 to 20 µM | 1 to 5 µM
O=C(NCc1ccccc1C(F)(F)F)C1CCN(Cc2cccc(Oc3ccccc3)c2)C1 (centres unmarked) [Compound 72, 1-(3-Phenoxy-benzyl)-pyrrolidine-3-carboxylic acid 2-trifluoromethyl-benzylamide] | 10 to 20 µM | 1 to 5 µM
O=C(NCc1ccccc1F)C1CCN(Cc2cccc(Oc3ccccc3)c2)C1 (centres unmarked) [Compound 73, 1-(3-Phenoxy-benzyl)-pyrrolidine-3-carboxylic acid 2-fluoro-benzylamide] | 10 to 20 µM | 1 to 5 µM
O=C(NCc1cccc(F)c1)C1CCN(Cc2cccc(Oc3ccccc3)c2)C1 (centres unmarked) [Compound 74, 1-(3-Phenoxy-benzyl)-pyrrolidine-3-carboxylic acid 3-fluoro-benzylamide] | 10 to 20 µM | 1 to 5 µM
O=C(NCc1ccc(F)cc1)C1CCN(Cc2cccc(Oc3ccccc3)c2)C1 (centres unmarked) [Compound 75, 1-(3-Phenoxy-benzyl)-pyrrolidine-3-carboxylic acid 4-fluoro-benzylamide] | 10 to 20 µM | 1 to 5 µM
O=C(NCc1cc(F)cc(F)c1)C1CCN(Cc2cccc(Oc3ccccc3)c2)C1 (centres unmarked) [Compound 76, 1-(3-Phenoxy-benzyl)-pyrrolidine-3-carboxylic acid 3,5-difluoro-benzylamide] | 10 to 20 µM | < 1 µM
O=C(NCc1cc(F)ccc1F)C1CCN(Cc2cccc(Oc3ccccc3)c2)C1 (centres unmarked) [Compound 77, 1-(3-Phenoxy-benzyl)-pyrrolidine-3-carboxylic acid 2,5-difluoro-benzylamide] | 10 to 20 µM | < 1 µM
O=C(NCc1ccc(F)cc1F)C1CCN(Cc2cccc(Oc3ccccc3)c2)C1 (centres unmarked) [Compound 78, 1-(3-Phenoxy-benzyl)-pyrrolidine-3-carboxylic acid 2,4-difluoro-benzylamide] | 10 to 20 µM | 1 to 5 µM
O=C(NCc1c(F)cccc1F)C1CCN(Cc2cccc(Oc3ccccc3)c2)C1 (centres unmarked) [Compound 79, 1-(3-Phenoxy-benzyl)-pyrrolidine-3-carboxylic acid 2,6-difluoro-benzylamide] | 10 to 20 µM | < 1 µM
O=C(NCc1ccc(F)c(F)c1)C1CCN(Cc2cccc(Oc3ccccc3)c2)C1 (centres unmarked) [Compound 80, 1-(3-Phenoxy-benzyl)-pyrrolidine-3-carboxylic acid 3,4-difluoro-benzylamide] | 10 to 20 µM | < 1 µM
CC(C)(C)c1ccc(CNC(=O)C2CCN(Cc3cccc(Oc4ccccc4)c3)C2)cc1 (centres unmarked) [Compound 81, 1-(3-Phenoxy-benzyl)-pyrrolidine-3-carboxylic acid 4-tert-butyl-benzylamide] | 10 to 20 µM | < 1 µM
Cc1cccc(CNC(=O)C2CCN(Cc3cccc(Oc4ccccc4)c3)C2)c1 (centres unmarked) [Compound 82, 1-(3-Phenoxy-benzyl)-pyrrolidine-3-carboxylic acid 3-methyl-benzylamide] | 10 to 20 µM | < 1 µM
Cc1ccc(CNC(=O)C2CCN(Cc3cccc(Oc4ccccc4)c3)C2)cc1 (centres unmarked) [Compound 83, 1-(3-Phenoxy-benzyl)-pyrrolidine-3-carboxylic acid 4-methyl-benzylamide] | > 20 µM | 1 to 5 µM
Cc1ccc(F)cc1CNC(=O)C1CCN(Cc2cccc(Oc3ccccc3)c2)C1 (centres unmarked) [Compound 84, 1-(3-Phenoxy-benzyl)-pyrrolidine-3-carboxylic acid 5-fluoro-2-methyl-benzylamide] | 10 to 20 µM | < 1 µM

Structure (SMILES) | IC50 (read-out: Nav1.6 Tonic) | IC50 (read-out: Nav1.6 inac)
O=C(NCc1nc(-c2ccccc2)cs1)C1CCN(Cc2cccc(Oc3ccccc3)c2)C1 (centres unmarked) [Compound 85, 1-(3-Phenoxy-benzyl)-pyrrolidine-3-carboxylic acid (4-phenyl-thiaz-1-2-ylmethyl)-amide] | > 20 µM | 1 to 5 µM
O=C(NCCc1c[nH]cn1)C1CCN(Cc2cccc(Oc3ccccc3)c2)C1 (centres unmarked) [Compound 86, 1-(3-Phenoxy-benzyl)-pyrrolidine-3-carboxylic acid [2-(1H-imidazol-4-yl)-ethyl]-amide] |  | > 5 µM
O=C(NCC1CCCO1)C1CCN(Cc2cccc(Oc3ccccc3)c2)C1 (centres unmarked) [Compound 87, 1-(3-Phenoxy-benzyl)-pyrrolidine-3-carboxylic acid (tetrahydro-furan-2-ylmethyl)-amide] | < 10 µM | < 1 µM
O=C(NCc1cccs1)C1CCN(Cc2cccc(Oc3ccccc3)c2)C1 (centres unmarked) [Compound 88, 1-(3-Phenoxy-benzyl)-pyrrolidine-3-carboxylic acid (thiophen-2-ylmethyl)-amide] | > 20 µM | < 1 µM
Cc1cnc(CNC(=O)C2CCN(Cc3cccc(OCC(F)(F)F)c3)C2)cn1 (centres unmarked) [Compound 89, 1-[3-(2,2,2-Trifluoro-ethoxy)-benzyl]-pyrrolidine-3-carboxylic acid (5-methyl-pyrazin-2-ylmethyl)-amide] | > 20 µM | 1 to 5 µM
Cc1cccnc1CNC(=O)C1CCN(Cc2cccc(OCC(F)(F)F)c2)C1 (centres unmarked) [Compound 90, 1-[3-(2,2,2-Trifluoro-ethoxy)-benzyl]-pyrrolidine-3-carboxylic acid (3-methyl-pyridin-2-ylmethyl)-amide] | > 20 µM | 1 to 5 µM
Cc1ccc(CNC(=O)C2CCN(Cc3cccc(Oc4ccccc4)c3)C2)o1 (centres unmarked) [Compound 91, 1-(3-Phenoxy-benzyl)-pyrrolidine-3-carboxylic acid (5-methyl-furan-2-ylmethyl)-amide] | > 20 µM | > 5 µM
O=C(NCc1cccc(C(F)(F)F)n1)C1CCN(Cc2cccc(OCC(F)(F)F)c2)C1 (centres unmarked) [Compound 92, 1-[3-(2,2,2-Trifluoro-ethoxy)-benzyl]-pyrrolidine-3-carboxylic acid (6-trifluoromethyl-pyridin-2-ylmethyl)-amide] | > 20 µM | 1 to 5 µM
O=C(NCc1ccccn1)C1(O)CCN(Cc2cccc(Oc3ccccc3)c2)C1 (centres unmarked) [Compound 93, 3-hydroxy-1-(phenyloxy-benzyl)-pyrrolidine-3-carboxylic acid (pyridin-2-ylmethyl)-amide] | > 20 µM | 1 to 5 µM
O=C(NCc1ccccn1)C1(O)CCN(Cc2cccc(Oc3ccccc3)c2)C1=O (centres unmarked) [Compound 94, 3-Hydroxy-2-oxo-1-(3-phenoxy-benzyl)-pyrrolidine-3-carboxylic acid (pyridin-2-ylmethyl)-amide] | > 20 µM | 1 to 5 µM
O=C(NCc1ccccn1)C1(Cl)CCN(Cc2cccc(Oc3ccccc3)c2)C1=O (centres unmarked) [Compound 95, 3-Chloro-2-oxo-1-(3-phenoxy-benzyl)-pyrrolidine-3-carboxylic acid (pyridin-2-ylmethyl)-amide] | > 20 µM | > 5 µM
O=C(NCc1ccc(OC(F)F)cc1)C1CCN(Cc2cccc(Oc3ccccc3)c2)C1 (centres unmarked) [Compound 96, 1-(3-Phenoxy-benzyl)-pyrrolidine-3-carboxylic acid 4-difluoromethoxy-benzylamide] | > 20 µM | > 5 µM
Cc1ccc(CNC(=O)C2CCN(Cc3cccc(OCC(F)(F)F)c3)C2)nc1 (centres unmarked) [Compound 97, 1-[3-(2,2,2-Trifluoro-ethoxy)-benzyl]-pyrrolidine-3-carboxylic acid (5-methyl-pyridin-2-ylmethyl)-amide] | > 20 µM | > 5 µM
O=C(NCc1ncccc1F)C1CCN(Cc2cccc(OCC(F)(F)F)c2)C1 (centres unmarked) [Compound 98, 1-[3-(2,2,2-Trifluoro-ethoxy)-benzyl]-pyrrolidine-3-carboxylic acid (3-fluoro-pyridin-2-ylmethyl)-amide] | > 20 µM | > 5 µM
CC1(C(=O)NCc2ccccn2)CCN(Cc2coc(-c3ccccc3)n2)C1 (centres unmarked) [Compound 99, 3-Methyl-1-(2-phenyl-oxazol-4-ylmethyl)-pyrrolidine-3-carboxylic acid (pyridin-2-ylmethyl)-amide] | > 20 µM | 1 to 5 µM
CCNC(=O)C1CN(Cc2cccc(Oc3ccccc3)c2)CCO1 (centres unmarked) [Compound 100, 4-(3-Phenoxy-benzyl)-morpholine-2-carboxylic acid ethylamide] | 10 to 20 µM | 1 to 5 µM
